Source: patent US9186296B2, “Containers for compositions comprising meloxicam” (Boehringer Ingelheim Vetmedica GmbH, priority 2009, dated 2015)

Assay: long-term stability programme according to VICH guideline 3 (storage in bottles of different materials)
Type: physicochemical
Conditions: PP bottles compared with bottles made of HDPE or LDPE; FIG. 4, 5, 6
Protocol: The preferred pharmaceutical composition filled into containers made of the different types of packaging has been subject to a long-term stability programme according to the conditions as described in the VICH guideline 3. The conditions used for storage were 25° C./60% r.h. (r.h.=relative humidity), 30° C./70% r.h., and 40° C. /75% r.h.
The stability studies of a 0.5 mg/ml suspension were carried out with 3 ml and 4 ml of the suspension being filled into 5 ml HDPE bottles. […] This has not been observed before for any of the suspensions (1.5 mg/ml or 0.5 mg/ml) or the different fill volumes. The shelf-life of the 1.5 mg/ml suspension with a 10 ml fill (in a 25 ml bottle) is for example at least 18 months. An acceptable shelf-life for commercial use of the product with a volume size for the treatment of cats for a few days (up to five days) cannot be established by using HDPE as the container material.
Thus, polypropylene is a suitable material for holding small volumes of oral suspensions comprising meloxicam and sodium benzoate as preservative. The suitability of PP is further shown by comparison with the unsuitable negative reference containers made of PET and PC, see FIGS. 1, 3, and 4.

## O=C([O-])c1ccccc1.[Na+] [sodium benzoate]
  decrease of sodium benzoate content over 18 months or at least 18 months: significantly lower in PP bottles than in bottles made of either HDPE or LDPE
